Where a name gives a salt, the structure may show the parent alone.
System: mPer2Luc MEF
Test: PER2::LUC luminescence relative to vehicle control (fold of vehicle); higher = higher PER2::LUC reporter signal
Protocol: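 Secondary dose-response validation of 72 circadian-modulating compounds in mPer2Luc MEFs, threefold dilution series of six doses from 10 uM down to 0.04 uM. PER2::LUC luminescence read at 24 h and 30 h after treatment, normalised to vehicle (DMSO) control.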

[1] = time after treatment: 24-hour, concentration: 0.04μM
[2] = time after treatment: 24-hour, concentration: 0.37μM
[3] = time after treatment: 24-hour, concentration: 3.33μM
[4] = time after treatment: 24-hour, concentration: 10μM
[5] = time after treatment: 30-hour, concentration: 0.04μM
[6] = time after treatment: 30-hour, concentration: 0.37μM
[7] = time after treatment: 30-hour, concentration: 3.33μM
[8] = time after treatment: 30-hour, concentration: 10μM

SMILES	PER2::LUC luminescence [1]	PER2::LUC luminescence [2]	PER2::LUC luminescence [3]	PER2::LUC luminescence [4]	PER2::LUC luminescence [5]	PER2::LUC luminescence [6]	PER2::LUC luminescence [7]	PER2::LUC luminescence [8]
Cc1ccc(-n2nc(C(C)(C)C)cc2NC(=O)Nc2ccc(OCCN3CCOCC3)c3ccccc23)cc1 [BIRB 796 (Doramapimod)]	0.968	0.966	0.963	1.09	0.892	0.941	0.924	1.26
CN1CCN(c2ccc3nc(-c4c(N)c5c(F)cccc5[nH]c4=O)[nH]c3c2)CC1 [Dovitinib (TKI-258)]	0.917	0.895	0.651	0.477	0.945	0.895	0.609	0.29
Cc1cccc(C#Cc2ccccc2)n1 [MPEP Hydrochloride]	1.11	1.19	1.33	1.39	1.22	1.41	1.57	1.73
CC[C@@H]1C(=O)N(C)c2cnc(Nc3ccc(C(=O)N[C@H]4CC[C@H](N5CCN(CC6CC6)CC5)CC4)cc3OC)nc2N1C(C)C [BI-6727 (Volasertib)]	0.71	0.565	0.287	0.074	0.679	0.574	0.326	0.08
NS(=O)(=O)c1ccc(NC(=O)Nc2ccc(F)cc2)cc1 [U-104]	1.04	1.05	1.01	0.876	1.05	1.06	1.06	0.947
O=C(Cc1ccc(-c2ccc(OCCN3CCOCC3)cc2)cn1)NCc1ccccc1 [KX2-391]	0.85	0.597	0.429	0.365	0.786	0.627	0.497	0.478
O=C(Nc1ccc(OC(F)(F)F)cc1)c1sccc1NCc1ccnc2ccccc12 [OSI-930]	1.11	1.04	1.37	1.43	1.14	1.11	1.57	1.91
CCCCN(CCCC)C(=O)CN1C[C@H](c2ccc3c(c2)OCO3)[C@@H](C(=O)O)[C@@H]1c1ccc(OC)cc1 [ATRASENTAN]	1.16	1.17	1.5	2.41	1.19	1.16	1.47	2.31
O=C(NC1CC1)c1cc(-c2cccs2)on1 [N-cyclopropyl-5-(thiophen-2-yl)-1,2-oxazole-3-carboxamide]	1.3	1.33	1.66	1.76	1.37	1.44	1.79	1.99
COc1ccccc1-c1cc(Nc2cccc(CS(N)(=O)=O)c2)ncn1	0.961	0.968	0.971	0.804	0.841	0.933	0.964	0.982
C[C@@H](O[C@H]1OCCN(Cc2nn(P(=O)(O)O)c(=O)[nH]2)[C@H]1c1ccc(F)cc1)c1cc(C(F)(F)F)cc(C(F)(F)F)c1 [Fosaprepitant dimeglumine]	1.06	1.02	0.627	0.456	0.978	0.951	0.891	0.849
Nc1nc(N)c2nc(-c3cccc(O)c3)cnc2n1	0.893	0.833	0.854	0.608	0.829	0.88	0.803	0.578
O=c1c(-c2ccc(O)cc2)coc2cc(O)ccc12 [Daidzein]	1.01	0.97	1.1	1.3	0.995	1.04	1.11	1.59
CN1CCN(S(=O)(=O)c2ccc(-c3cnc(N)c(C(=O)Nc4cccnc4)n3)cc2)CC1 [AZD2858]	1.18	1.37	1.01	0.842	0.938	1.16	0.874	0.676
Nc1nccc(Oc2ccc(NC(=O)c3c[nH]cc(-c4ccc(F)cc4)c3=O)cc2F)c1Cl	1	1.02	1.03	1.12	1.06	1.03	0.929	1
O=C1c2ccccc2C(=O)c2oc(-c3ccccc3)nc21 [SJB2-043]	1.11	1.29	1.94	1.65	1.17	1.2	1.36	1.11
Nc1ncnc2c1C(=O)N(c1ccc([C@H]3CC[C@H](CC(=O)O)CC3)cc1)CCO2	1.04	0.984	1	1	1.03	0.966	1.06	1.01
CCOc1cc(C(=O)N2CCC(N3CCN(C)CC3)CC2)ccc1Nc1ncc2c(n1)N(C1CCCC1)c1ccccc1C(=O)N2C [XMD17-109]	0.79	0.698	0.241	0.049	0.796	0.664	0.285	0.055
CC(C)c1onc(-c2c(Cl)cccc2Cl)c1COc1ccc(/C=C/c2cccc(C(=O)O)c2)c(Cl)c1 [GW4064]	1.04	1.08	1.24	1.88	1.08	1.1	1.32	2.19
O=C(O)CCCCC(CCSCc1ccccc1)SCc1ccccc1 (stereo unspecified) [CPI-613]	1	0.991	1.05	1.09	1.02	0.999	1.04	1.03
CN1CCN(C2CCC(n3cc(-c4ccc(Oc5ccccc5)cc4)c4c(N)ncnc43)CC2)CC1 (stereo unspecified)	0.613	0.502	0.203	0.006	0.566	0.477	0.212	0.003
CN1CCc2c(c3ccccc3n2Cc2ccc(C(=O)NO)cc2)C1 [Tubastatin A HCl]	1.07	1.05	1.05	0.699	0.984	0.982	0.916	0.576
CCOc1cc2ncc(C#N)c(Nc3ccc(F)c(Cl)c3)c2cc1NC(=O)/C=C/CN(C)C [Pelitinib (EKB-569)]	0.891	0.933	0.78	0.334	0.836	0.815	0.618	0.227
CCc1cc2c(cc1N1CCC(N3CCOCC3)CC1)C(C)(C)c1[nH]c3cc(C#N)ccc3c1C2=O	0.92	0.909	0.957	0.902	0.817	0.859	0.859	0.83
Cc1ccc2nc(NCCN)c3ncc(C)n3c2c1	0.893	0.859	0.768	0.028	0.841	0.784	0.594	0.03
CCc1cncnc1N1CCN(Cc2nc3ccc(C(F)(F)F)cc3[nH]2)CC1	1.03	1	1.01	1.06	1	1.03	1.01	1.03
O=C(c1ccc(F)c(F)c1Nc1ccc(I)cc1F)N1CC(O)([C@@H]2CCCCN2)C1 [Cobimetinib]	0.419	0.495	0.11	0.015	0.459	0.437	0.168	0.007

— the supplement of paper PMC9334596
